From the NIST ThermoML archive (doi:10.1021/acs.jced.7b01091)

Settings: Liquid; for vapor or sublimation pressure: Closed cell (Static) method; for mass density: 101.33 kPa, Vibrating tube method

C1COCO1 [1,3-dioxolane]
Settings | mass density [kg/m3] | vapor or sublimation pressure [kPa]
275 K | – | 3.86
284.94 K | – | 6.74
294.82 K | – | 11.33
298.15 K | 1058.76 | 13.31
304.79 K | – | 18.26
314.76 K | – | 28.28
324.9 K | – | 43.07
334.85 K | – | 62.99
344.82 K | – | 89.85
350.77 K | – | 109.39

C1CCOCC1 [tetrahydropyran]
Settings | mass density [kg/m3] | vapor or sublimation pressure [kPa]
275.59 K | – | 2.85
285.53 K | – | 4.91
295.42 K | – | 8.07
298.15 K | 879.16 | 9.25
305.37 K | – | 12.85
315.36 K | – | 19.9
325.65 K | – | 29.99
335.6 K | – | 43.81
345.59 K | – | 61.17
355.49 K | – | 84.29

ClCCCl [1,2-dichloroethane]
Settings | mass density [kg/m3] | vapor or sublimation pressure [kPa]
284.87 K | – | 5.38
294.83 K | – | 8.97
294.84 K | – | 8.96
298.15 K | 1245.68 | 10.53
304.82 K | – | 14.34
314.81 K | – | 22.19
314.83 K | – | 22.18
324.83 K | – | 33.27
334.82 K | – | 48.47
344.81 K | – | 67.97
354.89 K | – | 94.96

C1COCCO1 [1,4-dioxane]
Settings | mass density [kg/m3] | vapor or sublimation pressure [kPa]
284.59 K | – | 2.23
294.82 K | – | 3.92
298.15 K | 1027.87 | 4.68
304.81 K | – | 6.58
314.76 K | – | 10.54
324.92 K | – | 16.71
334.92 K | – | 25.52
344.89 K | – | 37.55
354.92 K | – | 54.11
